Experimental findings from patent publication US10030030B2, “Crystals of dispiropyrrolidine derivatives” (Daiichi Sankyo Company, Limited, priority 2012, dated 2018) are described below.

The target in experiment [1] is T1, Mdm2/p53 binding (His-p53 and GST-Mdm2) (Homo sapiens, UniProt Q00987, L33E).
T1 construct: Mdm2 amino acids at positions 25 to 108
The experiment is described as follows: Mdm2/p53 binding assay (HTRF). Particulars: His-p53 (aa 1-132) / GST-Mdm2 (aa 25-108, L33E), 6.25 nM each, 25° C., 1 hour. On the procedure: A protein dilution containing 6.25 nM each of His-p53 (fusion protein of a p53 partial protein having p53 amino acids at positions 1 to 132, with a histidine protein) and GST-Mdm2 (fusion protein of a Mdm2 partial protein, having Mdm2 amino acids at positions 25 to 108 with leucine residue 33 substituted by glutamic acid, with glutathione transferase) proteins was prepared using a protein buffer solution (20 mM HEPES pH 7.4, 150 mM NaCl, 0.1% BSA). This protein dilution was added in an amount of 8 μL/well to a 384-well plate (384-well low volume NBC, Corning Inc., catalog No: 3676). […]
Time-resolved fluorescence at 620 and 665 nm was measured at an excitation wavelength of 320 nm using a plate reader (ARVOsx, PerkinElmer Co., Ltd. or PHERAstar, BMG LABTECH). Ratio (R) was calculated using the measured values (RFU 620 nm and RFU 665 nm) according to the following formula: R=(RFU 665 nm−BI−C×RFU 620 nm)/RFU 620 nm
BI: measured value at 665 nm of reaction solution (only each buffer solution) nonsupplemented with each protein, the compound, and the antibodies […]
A and D: each measured value at 665 nm and 620 nm of reaction solution supplemented with only Eu-labeled anti-GST antibody solution.
The R value calculated from the well supplemented with His-p53, GST-Mdm2, the test compound, and each antibody was defined as R (sample). […] T/C was calculated from the formula shown below. […]
In general terms: In TR-FRET formats the signal depends on donor and acceptor labels being close together.

The subject of experiment [2] is human lung cancer-derived cell line NCI-H460 having wild-type p53. The experiment is described as follows: Cell growth inhibition assay (MTT). Particulars: 72 h, NCI-H460 cells, 3 days culture, read-out: cell growth inhibiting effect GI50. Type of experiment: cell-based. On the procedure:
A cell growth inhibition assay was conducted using human lung cancer-derived cell line NCI-H460 having wild-type p53.
NCI-H460 cells were suspended in a medium (RPMI1640 medium containing 10% fetal bovine serum) and the suspension was inoculated in an amount of 500 cells/150 μL/well to a 96-well multiwell plate. A test compound was dissolved in DMSO and this solution was diluted with medium to prepare a sample solution (DMSO concentration: 1% or lower). On the next day of inoculation, medium nonsupplemented with the test compound or the sample solution was added in an amount of 50 μL/well. […]
A 5 mg/mL MTT (3-(4,5-dimethylthiazol-2-yl)-2,5-diphenyltetrazolium bromide, Sigma-Aldrich Co., M-2128) solution was prepared using a phosphate buffer solution (Dulbecco's Phosphate-buffered Saline). […] The absorbance of each well was measured under conditions of OD 540 nm and reference 660 nm using a plate reader (SpectraMax PLUS384, Molecular Devices, Calif., USA).
The OD value measured on the day of adding the sample solution was defined as S. The OD value measured three days after addition of the sample solution was defined as T. The OD value measured three days after addition of the DMSO dilution was defined as C. […]

T1 sequence (Q00987 25-108 L33E): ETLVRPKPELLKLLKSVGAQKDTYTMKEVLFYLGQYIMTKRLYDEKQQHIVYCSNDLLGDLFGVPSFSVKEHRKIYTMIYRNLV

What is called IC50 is the concentration that inhibits the measured activity by half. The term GI50 denotes the concentration that inhibits growth by half. For `CC1(C)CCC2(CC1)N[C@@H](C(=O)N[C@@H]1CC[C@@H](C(N)=O)OC1)[C@H](c1ccnc(Cl)c1F)[C@]21C(=O)Nc2cc(Cl)ccc21` [compound (1), (3′R,4′S,5′R)—N-[(3R,6S)-6-carbamoyltetrahydro-2H-pyran-3-yl]-6″-chloro-4′-(2-chloro-3-fluoropyridin-4-yl)-4,4-dimethyl-2″-oxo-1″,2″-dihydrodispiro[cyclohexane-1,2′-pyrrolidine-3′,3″-indole]-5′-carboxamide], the half-maximal inhibitory concentration (IC50) in experiment [1] was at most 100 nM. For the same compound, in experiment [2], the GI50 is under 100 nM.
